From ChEMBL document CHEMBL3507680, “University of Dundee, Gates Library screen for HepG2 cell viability”

Assay: Human HepG2 cell viability assay in 384 well format
Format: toxicity, cell-based
Parameters: dose 125 nL, time 70.5 hour; concentration not given beside the values
Settings: HepG2 cells, read-out: Inhibition

Row | Compound | cytotoxicity at 70.5 h [%]
1 | c1nc(N2CCCC2)cnc1C1CCNCC1 | -6.46
2 | NC(=O)c1cccc(-c2cnc(C3CCCNC3)cn2)c1 (stereo unspecified) | -7.33
3 | Cc1cc(N2CCOC(c3ccccn3)C2)nc(N)n1 (stereo unspecified) | -3.03
4 | Cn1ccnc1-c1nc(N2CCCCC2)ncc1-c1ccccc1F | -7.17
5 | NC(=O)C1(Cc2ccccc2-c2cncnc2)CCCNC1 (stereo unspecified) | -10.3
6 | CC(CN1CCOCC1)n1cncc1-c1cnn(Cc2ccccc2)c1 (stereo unspecified) | -2.84
7 | COc1ccc(S(=O)(=O)N2CCOC(C)(C(N)=O)C2)cc1 (stereo unspecified) | -3.24
8 | O=C1CN([C@@H]2CC[C@@H](NS(=O)(=O)c3ccccc3)[C@H]2O)CCN1 | -2.13
9 | Cc1nccn1[C@@H]1CC[C@@H](N(C)S(=O)(=O)c2cccc(F)c2)[C@H]1O | -0.727
10 | CN(C)c1ccc(C(=O)N2CCC(c3cc4ncccc4[nH]3)CC2)cc1 | -1.4
11 | O=C(Cc1ccsc1)N1CCC[C@@H]1Cn1c(=O)oc2ccccc21 | -5.78
12 | O=C(c1c(F)cccc1F)N1CCC[C@@H]1Cn1c(=O)oc2ccccc21 | -0.473
13 | Cc1nc(N)cc(C2(C)CCCNC2)n1 (stereo unspecified) | -5.33
14 | c1cn(-c2nccnc2C2CCCN(C3CCOCC3)C2)cn1 (stereo unspecified) | -5.56
15 | CC(=O)N1CCC(c2ncc(C(=O)Nc3ccccc3)c(C)n2)CC1 | -4.36
16 | Cn1ccc(C(=O)N2CCCC2c2cc(CCO)[nH]n2)n1 (stereo unspecified) | -1.26
17 | CCN(CC)S(=O)(=O)N1CCCC(c2ncc3c(n2)CCN(C)C3)C1 (stereo unspecified) | 23.8
18 | Fc1cccc(CN2CCC[C@H](Cn3nnc(-c4ccccn4)n3)C2)c1 | -4.05
19 | Fc1cccc(CN2CCC[C@@H](Cn3nnc(-c4ccccn4)n3)C2)c1 | -5.77
20 | Fc1ccccc1CN1CCC[C@@H](Cn2nnc(-c3cccs3)n2)C1 | -3.35
21 | CC(NC(=O)C1CCCCC1)c1cc(O)nc(-c2cccnc2)n1 (stereo unspecified) | -4.35
22 | CC(C)C(NC(=O)C1CC1)c1cc(O)nc(-c2cccnc2)n1 (stereo unspecified) | -0.322
23 | COc1ccc(-c2cc(C3CCCCCN3S(C)(=O)=O)on2)cc1 (stereo unspecified) | -2.6

Row | Compound | cytotoxicity at 70.5 h [%]
24 | C=Cn1cc(CN2CCC(c3ncc(Cl)cc3S(C)(=O)=O)CC2)c(C)n1 | -3.31
25 | CCn1cc(CN2CCC(c3ncc(Cl)cc3S(C)(=O)=O)CC2)c(C)n1 | 0.165
26 | C=Cn1ncc(CN2CCC(c3ncc(Cl)cc3S(C)(=O)=O)CC2)c1C | 10
27 | CC(C)(C)c1ccc(C(=O)NCCCNC(=O)c2cnccn2)cc1 | -3.26
28 | COc1ccc(-c2cc3nc(CCNC(=O)C4CC4)nn3cn2)cc1 | 16.8
29 | COCC(=O)NCCc1nc2cc(-c3ccc(OC)cc3)ncn2n1 | -5.33
30 | COc1ccc(-c2cc3nc(CCNC(=O)CN(C)C)nn3cn2)cc1 | -1.8
31 | CN(C)S(=O)(=O)N1CCCCCC1c1cc(-c2ccc(F)cc2)no1 (stereo unspecified) | 1.28
32 | O=C(NC1CC1)[C@H]1CN(Cc2ccccc2)C[C@@H]1C(=O)c1ccccc1 | -3.57
33 | CNC(=O)[C@@H]1CN(Cc2ccccc2)C[C@H]1C(=O)c1ccc(F)cc1 | -1.84
34 | O=C(c1ccccc1F)N1CCCC1Cn1c(=O)oc2ccccc21 (stereo unspecified) | -0.201
35 | Cc1nn(CCC(=O)NC2CCCOC2)c(C)c1C (stereo unspecified) | -1.37
36 | CN(CCc1ccncc1)Cc1c(C2CCCC2)[nH]c2ncccc12 | -1.56
37 | CC(=O)N1CCCC1CCc1ccc(Cl)nn1 (stereo unspecified) | -2.45
38 | Cc1ccncc1CN1CCOCC1c1[nH]ncc1C (stereo unspecified) | -1.54
39 | Cc1cn[nH]c1C1COCCN1Cc1c[nH]cn1 (stereo unspecified) | 4.32
40 | CC1(c2nccs2)CCN(C(=O)CCN2CCOCC2)CC1 | -1.94
41 | CN1CCN(CC2(O)CCCN(S(=O)(=O)c3cn[nH]c3)CC2)CC1 (stereo unspecified) | -3.77
42 | CN1CCCC1CCNC(=O)c1ccccc1-n1cc(CN)cn1 (stereo unspecified) | 1.23
43 | CN(C)Cc1cccc(-c2cccnc2C(=O)NCc2ccco2)c1 | -4.14
44 | O=C(Cc1ccc(Cl)cc1)N[C@@H]1CCC[C@@H](O)[C@@H]1O | -0.327
45 | O=C(CCn1ccnc1)N1CC[C@H](Oc2ccc(F)cc2)[C@@H](O)CC1 | 0.282
46 | CC(C)(C(=O)N[C@@H]1CCC[C@@H](O)[C@@H]1O)c1cccc(F)c1 | -4.01

Row | Compound | cytotoxicity at 70.5 h [%]
47 | Cc1cc(C)c2cc(CNCCCN3CCOCC3)c(=O)[nH]c2c1 | -7.01
48 | O=c1[nH]c2ccccc2cc1CNCCCN1CCOCC1 | -1.38
49 | O=C1NCC2(CCCN(Cc3ccncc3)C2)Oc2ccccc21 (stereo unspecified) | -8.47
50 | Cc1csc(C(Cc2ccsc2)NC(=O)C2CCN(S(C)(=O)=O)CC2)n1 (stereo unspecified) | -10
51 | Cc1nc2cc(C3CCN(Cc4ccccc4F)C3)nn2c(O)c1C (stereo unspecified) | -3.81
52 | CCS(=O)(=O)N1CCC(C(=O)NC(Cc2ccsc2)c2nccs2)CC1 (stereo unspecified) | 18.9
53 | CCc1ncc(CN2CCc3nc4sc(C)cc4c(=O)n3CC2)cn1 | 17.6
54 | O=C(Cn1cccnc1=O)NC(Cc1ccsc1)c1nccs1 (stereo unspecified) | 17.6
55 | Cc1nc(C2CCN(C(=O)c3ccn(C)n3)CC2)c2sccn12 | -5.98
56 | Cc1nc(C2CCN(C(=O)c3ccnn3C)CC2)c2sccn12 | -3.95
57 | COc1ncc(C(=O)N2CCC(c3nc(C)n4ccsc34)CC2)cn1 | 24.2
58 | CS(=O)(=O)c1snnc1C1CCN(Cc2ccc3nccnc3c2)CC1 | -5.73
59 | Cc1cc(C)c2cc(CNCc3ccc(C)o3)c3nn(C)c(=O)n3c2c1 | -5.87
60 | Cc1ccc2cc(CNCCN3CCCC3)c(=O)[nH]c2c1 | -0.158
61 | CCCn1ncc(CN2C[C@@H]3CCCN3C[C@H]2Cc2ccccc2)c1C | 23.6
62 | C=Cn1ncc(CN2C[C@@H]3C[C@@H](O)CN3C[C@@H]2Cc2ccccc2)c1C | 1.04
63 | CNc1cccc(C2CCCN(C(=O)c3cccnc3)C2)n1 (stereo unspecified) | 20.4
64 | COc1cc(CN2CCC3(CC(Nc4ccncn4)C3)C2)cc(OC)c1 (stereo unspecified) | 0.186
65 | CN(C)Cc1ccnc(C2CCCN2Cc2ccc3ncccc3c2)n1 (stereo unspecified) | 1.4
66 | Cc1cccnc1CN1CCC2(CC(Nc3ccncn3)C2)C1 (stereo unspecified) | 1.25
67 | COc1cccc(CN2CCC3(CC(Nc4ccncn4)C3)C2)c1F (stereo unspecified) | 2.19
68 | CC(C)N1CCC(Cc2cncc(-c3cc(F)ccc3C(=O)O)n2)CC1 | 0.0602
69 | Cc1ccccc1-c1cncc(C2CCN(CC(=O)N(C)C)CC2)n1 | -3.4

Row | Compound | cytotoxicity at 70.5 h [%]
70 | C=Cn1ncc(CN2C[C@@H]3CCCN3C[C@H]2Cc2ccccc2)c1C | 14.6
71 | O=C(N[C@@H]1CCC[C@@H](n2ccnc2)[C@@H]1O)c1ccc2c(c1)CCCC2 | 30.9
72 | Nc1nc2nc(C3CCN(C(=O)c4cscn4)C3)ccc2s1 (stereo unspecified) | -5.85
73 | Cn1ccc(C(=O)N2CCC(Cc3cnc4[nH]ccc4c3)C2)n1 (stereo unspecified) | -7.96
74 | CNC(=O)c1cccc(C2CNCCN2C(=O)C2CCNCC2)c1 (stereo unspecified) | -5.44
75 | CCc1cc(O)nc(C2CCCN2C(=O)c2cc(CC)on2)n1 (stereo unspecified) | -5.67
76 | Cc1cc(C)nc(Nc2cccc(C3CCCN(CCO)C3)n2)n1 (stereo unspecified) | -4.13
77 | Cc1n[nH]c(C)c1NC(=O)CCc1cccc(C2CCCN(C)C2)n1 (stereo unspecified) | -3.99
78 | Cc1cccc(C2CCCN(C(=O)c3ccncc3)C2)n1 (stereo unspecified) | -7.3
79 | COCC(=O)N1CCOC(c2ccc(N(C)C)cn2)C1 (stereo unspecified) | 15.3
80 | Cc1nc(C)c(C(=O)Nc2cnn(CC(=O)NC3CCCC3)c2)s1 | 14.1
81 | Cn1ccc(C(=O)N2CCCC(Cc3cccc4cccnc34)C2)n1 (stereo unspecified) | 11.6
82 | COc1cccc(C(=O)NC(c2ccccn2)[C@H]2CC[C@H](CN)CC2)c1 (stereo partly specified) | -8.19
83 | CNc1cc(CNC(=O)c2ccccc2OC)nc(-c2ccncc2)n1 | 12.5
84 | CNc1ccc(CC2CCCN(C(=O)c3cnccn3)C2)nn1 (stereo unspecified) | -14.4
85 | CNc1ccc(CC2CCCN(C(=O)c3c(C)noc3C)C2)nn1 (stereo unspecified) | -13.8
86 | O=C(C1CCC1)N1CCCC(c2cccc(-n3ccnc3)n2)C1 (stereo unspecified) | -6.13
87 | COCC(=O)N1CCCC1c1csc(Nc2cnccn2)n1 (stereo unspecified) | -10.2
88 | Cc1cncc(C2CCN(Cc3cccn3C)CC2)n1 | 11.8
89 | COc1ncc(CN2CCCC(c3[nH]ncc3S(C)(=O)=O)C2)cn1 (stereo unspecified) | -7.31
90 | CNc1cncc(C2CCCN2Cc2cccc(C)n2)n1 (stereo unspecified) | -6.12
91 | O=C(Cc1ccsc1)N1CCC(O)(CN2CCc3ccccc3C2)C1 (stereo unspecified) | -5.49
92 | Cc1ccc(C(=O)N2CCCCC2c2[nH]ncc2S(C)(=O)=O)s1 (stereo unspecified) | 12.5

Row | Compound | cytotoxicity at 70.5 h [%]
93 | Cn1cccc1C(=O)N1CCCCC1c1[nH]ncc1S(C)(=O)=O (stereo unspecified) | -5.18
94 | O=C(N[C@@H]1CN(Cc2cccc3[nH]ccc23)C[C@H]1O)c1cscn1 | -4.99
95 | COc1ccc(CN2CCOC(CCc3ccnc(N)c3)C2)cc1 (stereo unspecified) | -0.852
96 | CCN(CC)S(=O)(=O)NCC1COc2ccccc2O1 (stereo unspecified) | 24.9
97 | CCc1nnc(CN2CCc3ccc(S(N)(=O)=O)cc32)o1 | -0.999
98 | CN(C(=O)c1ccccc1N(C)S(C)(=O)=O)c1ccc(C(C)(C)C)cc1 | 5.15
99 | Cc1ncsc1C(=O)N1CCCC1c1c(C)nn(C)c1C (stereo unspecified) | -1.63
100 | O=S(=O)(NCc1ccnc(-n2ccnc2)c1)c1cncc(Cl)c1 | -0.226
101 | CCN(Cc1cnc(C)cn1)C1CCN(c2ccccc2)C1=O (stereo unspecified) | 2.9
102 | CCOCCC(=O)N(CCC#N)c1ccc(C)c(C)c1 | -1.94
103 | CC(C(=O)NCc1ccc2c(c1)OCCO2)n1cncn1 (stereo unspecified) | 31.8
104 | COc1ccc(F)cc1-c1ccccc1CC1CNCCNC1=O (stereo unspecified) | 2.28
105 | Cn1nc(C2CCCN(Cc3cc(F)cc(F)c3)C2)c2nccnc21 (stereo unspecified) | -1.82
106 | Cc1ccc(CN2Cc3ccccc3O[C@]3(CC[C@H](CO)CC3)C2)o1 | 52
107 | CCC(C)S(=O)(=O)N1CCc2nc(C3CCNCC3)ncc2C1 (stereo unspecified) | -0.105
108 | Cc1cc(C)c2[nH]c(C)c(CC(=O)N(C)CCN(C)C)c2c1 | 1.29
109 | COc1ccc(CN(C)[C@@H]2COC[C@H]2c2ccc(F)cc2)c(OC)c1 | 0.309
110 | c1cnc2[nH]nc(C3CCN(Cc4ccsc4)CC3)c2c1 | -4.44
111 | Fc1ccc(F)c(CN2CCC(c3n[nH]c4ncccc34)CC2)c1 | -7.24
